Where only a bound is given, the exact number is not on record here.

This note sets out measurements from BindingDB's records for patent US20250099442 (Prothena Biosciences, 2025).

The experiment concerns the target Dual specificity tyrosine-phosphorylation-regulated kinase 1A (Homo sapiens, UniProt Q13627). Put plainly: DYRK1A Inhibition Assay. The protocol:
Assay Procedure1. Add 5 μL enzyme & substrate mixture to each well in Column 2-23 and A24-H24 wells of the 384-well assay plate;2. Add 5 μL 0% Phosphorylation control to A1-H1 and I24-P24 wells of the assay plate;3. Add 5 μL 100% Phosphorylation control to I1-P1 wells of the assay plate;4. Spin the assay plate (1000 rpm, 1 minute @23° C.);5. Incubate enzyme with compounds for 15 minutes at 23° C.;6. Add 5 μL ATP solution to each well of the assay plate;7. Spin the plate (1000 rpm, 1 minute @23° C.);8. Incubate the assay plate for 90 minutes at 23° C.;9. Add 10 μL Development reagent A to each well of the assay plate;10. Centrifuge the plate at 1000 rpm about 15 seconds and seal a film over assay plate. Incubate the assay plate for 30 minutes at 23° C.11. Read assay plates on Envision
In the case of `CN1CCC(C(=O)Nc2cc(-c3ccc4c(c3)ncn4C)ccn2)CC1` [US20250099442, Compound I.34], the IC50 (as a rule, the midpoint of a concentration-inhibition curve) was < 10 nM.
On to `Fc1ccc(COc2cc(-c3ccc4c(c3)CCO4)ccn2)cc1F` [US20250099442, Compound I.35], for which the IC50 was > 1000 nM.
Molecule `c1cc(-c2ccc3c(c2)CCO3)cc(OCC2CCCCN2)n1` (stereo not given) [US20250099442, Compound I.36] displayed an IC50 of 100 to 1000 nM.
Molecule `Cn1ncc2ccc(-c3cncc(O[C@@H]4Cc5ccccc5[C@@H]4N)c3)cc21` [US20250099442, Compound I.37] gave a concentration for half-maximal inhibition (IC50) of 100 to 1000 nM.
Under `CC(=O)N1CCC(n2cnc3ccc(-c4ccncc4)cc32)CC1` [US20250099442, Compound I.38] stands 10 to 100 nM.
`O=S(=O)(c1ccc(F)cc1)N1CCCC(n2cnc3ccc(-c4ccncc4)cc32)C1` (stereo not given) [US20250099442, Compound I.39] had a half-maximal inhibitory concentration (IC50) of 100 to 1000 nM.
In the case of `CN1CCC(C(=O)Nc2cn3cc(-c4ccncc4)ccc3n2)CC1` [US20250099442, Compound I.42], the half-inhibitory concentration (IC50) is < 10 nM.
Under `COc1cc(-c2ccc3nc(NC(=O)C4C5CC4CN(C)C5)sc3c2)ccn1` (stereo not given) [US20250099442, Compound I.43] stands 10 to 100 nM; under `CN1CC(C(=O)Nc2nc3ccc(-c4ccncc4)cc3s2)C1` [US20250099442, Compound I.45], 10 to 100 nM.
Molecule `COc1cc(-c2ccc3nc(NC(=O)C4CN(C)C4)sc3c2)ccn1` [US20250099442, Compound I.46] came in with a half-maximal inhibitory concentration (IC50) of 10 to 100 nM.
`c1cc(-c2ccc3nc4n(c3c2)CCNC4)ccn1` [US20250099442, Compound I.48] came in with an IC50 of 100 to 1000 nM.
Molecule `CN1CCC(N2CCn3c(nc4ccc(-c5ccncc5)cc43)C2)CC1` [US20250099442, Compound I.49] came in with an IC50 of 10 to 100 nM.
In the case of `CN1CCn2c(nc3ccc(-c4ccncc4)cc32)C1` [US20250099442, Compound I.50], the IC50 was > 1000 nM.
As for `CN1CCC(C(=O)Nc2nc3ccc(-c4ccncc4)nc3s2)CC1` [US20250099442, Compound I.51], the IC50 was < 10 nM.
`CN1CC2CC(C1)C2C(=O)Nc1nc2ccc(-c3ccncc3)cc2s1` (stereo not given) [US20250099442, Compound I.52]: the IC50 is 100 to 1000 nM.
In the case of `CN1CCC(C(=O)Nc2cc(-c3cc(=O)n(C)c4ccccc34)ccn2)CC1` [US20250099442, Compound I.55], the IC50 was 10 to 100 nM.
Under `CN1CCC(C(=O)Nc2cc(-c3cc(Cl)cc4ncccc34)ccn2)CC1` [US20250099442, Compound I.56] stands 100 to 1000 nM; under `Cc1cc(-c2ccnc(NC(=O)C3CCN(C)CC3)c2)c2ocnc2c1` [US20250099442, Compound I.57], 100 to 1000 nM.
`CN1CCC(C(=O)Nc2cc3cc(-c4ccncc4)cn3cn2)CC1` [US20250099442, Compound I.58] registered an IC50 of 10 to 100 nM.
Molecule `CN1CCC(C(=O)Nc2cn3cc(-c4ccncc4)cc3cn2)CC1` [US20250099442, Compound I.59] displayed an IC50 of 10 to 100 nM.
The result for `COc1cc(-c2ccnc(NC(=O)C3CCN(C)CC3)c2)cc2cnccc12` [US20250099442, Compound I.60] reads 10 to 100 nM; that for `CCOc1cc(-c2ccc3nc(NC(=O)[C@H]4CCCN(C)C4)sc3c2)ccn1` [US20250099442, Compound I.61], 100 to 1000 nM; that for `O=C(Nc1cc2cc(-c3ccncc3)cn2cn1)C1CCOCC1` [US20250099442, Compound I.63], 10 to 100 nM.
Take `CN1CCC(C(=O)N2CCn3c(nc4ccc(-c5ccncc5)cc43)C2)CC1` [US20250099442, Compound I.64]: the IC50 lay in the range of 10 to 100 nM.
With `C[C@@H]1CC(C(=O)Nc2cn3cc(-c4ccncc4)ccc3n2)C[C@H](C)N1` (stereo not given in full) [US20250099442, Compound I.65], the half-maximal inhibitory concentration (IC50) lay within 10 to 100 nM.
With `C[C@@H]1CC(C(=O)Nc2cn3cc(-c4ccncc4)ccc3n2)C[C@H](C)N1C` (stereo not given in full) [US20250099442, Compound I.66], the half-maximal inhibitory concentration (IC50) lay in the range of 10 to 100 nM.
For the molecule `CN1CCC(C(=O)Nc2ccc3c(-c4ccncc4)c[nH]c3n2)CC1` [US20250099442, Compound I.67], the IC50 is < 10 nM.
For the molecule `CN1C2CCC1CC(C(=O)Nc1nc3ccc(-c4ccncc4)nc3s1)C2` (stereo not given) [US20250099442, Compound I.69], the concentration for half-maximal inhibition (IC50) was < 10 nM.
`CN1C[C@@H]2C(C(=O)Nc3nc4ccc(-c5cccnc5)nc4s3)[C@@H]2C1` (stereo not given in full) [US20250099442, Compound I.70]: the half-inhibitory concentration (IC50) lay within 100 to 1000 nM.
On to `COc1cc(-c2ccc3nc(NC(=O)c4cccc(C#N)c4)sc3n2)ccn1` [US20250099442, Compound I.71], for which the IC50 was < 10 nM.
In turn, `CN1CC2C(C1)C2C(=O)Nc1cc2cc(-c3ccncc3)cn2cn1` (stereo not given) [US20250099442, Compound I.72] displayed an IC50 of 10 to 100 nM.
The result for `Cc1c(-c2ccncc2)cn2cnc(NC(=O)C3[C@H]4CN(C)C[C@@H]34)cc12` (stereo not given in full) [US20250099442, Compound I.73] reads 10 to 100 nM.
Consider `Cc1c(-c2ccncc2)cn2cnc(NC(=O)C3C4CNCC43)cc12` (stereo not given) [US20250099442, Compound I.74], for which the IC50 lay within 10 to 100 nM.
The result for `Cc1c(C#CC2CCOCC2)nc2ccc(-c3ccncc3)cn12` [US20250099442, Compound I.76] reads 10 to 100 nM; that for `O=C(O)c1ccc(-c2cnc3n2CCN(c2cccnc2)C3)cc1` [US20250099442, Compound I.78], 100 to 1000 nM.
Regarding `Cc1cc(-c2cnn3cc(-c4ccc5cnccc5c4)n(C)c(=O)c23)ccn1` [US20250099442, Compound I.80], the IC50 was in the range of 100 to 1000 nM.
`O=C(O)c1ccc(-c2cnc3n2CC(=O)N(C2CCOCC2)C3)cc1` [US20250099442, Compound I.81]: the IC50 is > 1000 nM.
For the molecule `COc1ccc(CN2Cc3ncc(-c4ccc(C#N)cc4)n3CC2=O)cc1` [US20250099442, Compound I.82], the 50% inhibitory concentration (IC50) is > 1000 nM.
`c1cc(-c2ccc3ncsc3c2)c(OC2CCC2)cn1` [US20250099442, Compound I.83] gave an IC50 of 100 to 1000 nM.
Under `Cc1cc(-c2cn3ncc(-c4ccc(O)c(C#N)c4)c3c(=O)n2C)ccn1` [US20250099442, Compound I.84] stands 10 to 100 nM.
Consider `CCCOc1cc(COC2CCN(C)CC2)nc2[nH]cc(-c3ccncc3)c12` [US20250099442, Compound I.85], for which the IC50 is 10 to 100 nM.
As for `c1cncc(-c2ccc3cncc(OC4CCNC4)c3c2)c1` (stereo not given) [US20250099442, Compound I.87], the IC50 fell in the range of 100 to 1000 nM.
`CN1CCC(Oc2cnc3[nH]cc(-c4cc[nH]c(=O)c4)c3n2)C1` (stereo not given) [US20250099442, Compound I.88] showed an IC50 of 100 to 1000 nM.
On to `CN1CCC(C2CN(c3ncc(-c4ccncc4)c4c3C(=O)NC4)C2)CC1` [US20250099442, Compound I.89], for which the IC50 was > 1000 nM.
Under `CN1CCC(C#Cc2cc(-c3cn(C4CCOCC4)c4cnccc34)ccn2)CC1` [US20250099442, Compound I.91] stands < 10 nM; under `C(#CC1CCOCC1)c1cc(-c2cn(C3CCOCC3)c3cnccc23)ccn1` [US20250099442, Compound I.92], < 10 nM; under `CCN1CCC(C(=O)Nc2cc(-c3ccc4ncn(C(F)F)c4c3)ccn2)CC1` [US20250099442, Compound I.93], 10 to 100 nM.
Turning to `CCN1CCC(C(=O)Nc2cc(-c3ccc4c(c3)ncn4C(F)F)ccn2)CC1` [US20250099442, Compound I.94], the 50% inhibitory concentration (IC50) was > 1000 nM.
In turn, `OC1(C#Cc2ccc3c(-c4ccncc4)c[nH]c3n2)CCNCC1` [US20250099442, Compound I.95] yielded a 50% inhibitory concentration (IC50) of 100 to 1000 nM.
In turn, `CC(C)CN1CCC(O)(C#Cc2ccc3c(-c4ccncc4)c[nH]c3n2)CC1` [US20250099442, Compound I.96] registered an IC50 of 100 to 1000 nM.
`CC(C)CN1CCC(C#Cc2nc3ccc(-c4ccnc(N)c4)nc3n2C2CC2)CC1` [US20250099442, Compound I.99] had a half-maximal inhibitory concentration (IC50) of 10 to 100 nM.
The result for `CC(C)CN1CCC(C#Cc2cc(-c3cn(C4CCOCC4)c4cnccc34)ccn2)CC1` [US20250099442, Compound I.100] reads 10 to 100 nM; that for `CN1CCC(C(=O)Nc2ncc(-c3ccc4ncn(C)c4c3)s2)CC1` [US20250099442, Compound I.102], 10 to 100 nM; that for `CCCOc1cc(COC2CCN(C)CC2)nc2[nH]cc(C(F)(F)F)c12` [US20250099442, Compound II.7], < 500 nM.
The result for `CC(=O)Nc1ccc2cnc(NC(=O)C3CCN(C)CC3)cc2c1` [US20250099442, Compound II.22] reads < 500 nM.
